Test results taken from patent US6716829B2, “Aldosterone antagonist and cyclooxygenase-2 inhibitor combination therapy to prevent or treat inflammation-related cardiovascular disorders” (Pharmacia Corporation, priority 2000, dated 2004).
“And” between values parts separate entries of the source, which are not always exact repeats. Equal entries are not always repeated.

Experiment: Assay C: body weight, left and right ventricle weight, tibia length (myocardial hypertrophy)
Assay type: in vivo, Male Sprague-Dawley rats
Conditions: for Body weight: aldosterone + salt at days 7, 14 and 30 vs vehicle + salt, eplerenone effect at day 30; for Ventricular hypertrophy (absolute ventricular weights, ventricular weight to tibia length ratios): 7 to 30 days
Description: The procedure of Assay B was expanded upon in a further study. […] Myocardial tissue from animals in each treatment group was examined after 7, 14, or 30 days of treatment.
Male Sprague-Dawley rats, weighing 230 to 250 g, (Harlan Sprague-Dawley Industries, Indianapolis, IN) were housed in a room 12-hours light/12-hours dark daily cycle at an ambient temperature of 22±1° C. (n=96). Animals were allowed one week to adjust after arrival and had free access to TEKLAD 22/5 rodent diet (Harlan TEKLAD, Madison, Wis.) and tap water until the initiation of the experiment.
Potassium chloride supplementation was added to the saline solution in order to prevent the potential hypokalemia associated with aldosterone excess.
At the time of the surgery, an Alzet 2002 osmotic minipump (Alza Corp., Palo Alto, Calif.) containing either vehicle (9% ethanol/87% propylene glycol/4% dH2O) or 1.0 mg/mL d-aldosterone (Sigma Chemical, St. Louis, Mo.) was inserted subcutaneously at the nape of the neck. Aldosterone was administered at a dose of 0.75 µg/hour. […] Animals were sacrificed from each group (n=8-13) after 7, 14, or 30 days of treatment.
Animals to be sacrificed after 7 or 14 days of treatment were uninephrectomized and implanted with an Alzet minipump. Animals treated for 30 days were uninephrectomized, fitted for Alzet minipumps, and implanted with radio telemetry units (model #TA11PA-C40, Data Sciences Inc., St. Paul, Minn.) according to the following procedure. Animals were anesthetized with 5% isoflurane (SOLVAY Animal Health Inc., Mendota Heights, Minn.), which was delivered in O2 using a VMS anesthesia instrument (Matrix Medical, Inc., Orchard Park, N.Y.). Anesthesia was maintained with 1-2% isoflurane throughout the surgical procedure. The surgery site was clipped, scrubbed with nolvasan, and sprayed with betadine. A rostral-caudal incision was made through the skin from the base of the rib cage to the pubic region using a #11 scalpel blade. A second incision was made through the muscles of the abdominal wall to expose the peritoneal cavity. The […], renal artery and vein of the left kidney were isolated, tied off with 4-0 silk, and the kidney excised and discarded. Organs were carefully displaced with tissue retractors in order to expose the abdominal aorta. A 1.5 cm segment just rostral to the bifurcation of the abdominal aorta into the iliac arteries was cleared of excessive connective tissue and 4-0 silk was used to make an anchor adjacent to the aorta. A microvascular clip was then placed at both ends of the cleaned region to stop excessive blood flow. Using a bent, 21 gauge needle, the abdominal aorta was penetrated. The cannula of the radio telemetry unit was inserted and stabilized in the aorta using the 4-0 silk anchor. Organs were repositioned and the telemetry unit was placed over the organs. Using a non-interrupted suture pattern with 4-0 silk, the abdominal wall was closed, and the skin was subsequently closed using a 4-0 silk in an interrupted suture pattern. Animals were injected around the sutures with 100 μL of the anesthetic Marcaine HCl (Sanofi Winthrop Pharmaceuticals, New York, N.Y.) and given an injection (i.m.) of the antibiotic Mandol (Eli Lilly & Co., Indianapolis, Ind.). Post-operative care included monitoring the animals on a heating pad during recovery from anesthesia until sternal recumbency was reestablished. Animals were monitored daily for signs of distress and infection at the surgical site. Animals displaying continued discomfort after surgery were treated with 0.1-0.5 mg/kg, s.c. Buphrenorphine (Rickett & Colman Pharmaceuticals, Inc. Richmond, Va.). Animals were then placed on tap water and TEKLAD 22/5 rodent diet (Harlan TEKLAD, Madison, Wis.).

[1] = 14-day protocol, individual rats and group Mean, listed as Aldosterone + salt
[2] = 14-day protocol, individual rats and group Mean, listed as Aldosterone + salt, mean
[3] = 30-day protocol, individual rats and group Mean, listed as Aldosterone + salt
[4] = 30-day protocol, individual rats and group Mean, listed as Aldosterone + salt, group mean
[5] = aldosterone + salt, eplerenone 100 mg/kg/day
[6] = mean ± SEM after 7 days of treatment, aldosterone + salt, eplerenone 100 mg/kg/day
[7] = mean ± SEM after 14 days of treatment, aldosterone + salt, eplerenone 100 mg/kg/day
[8] = mean ± SEM after 30 days of treatment, eplerenone dose 100 mg/kg/day
[9] = 14-day protocol, individual rats and group Mean, listed as Eplerenone + aldosterone + salt
[10] = 14-day protocol, individual rats and group Mean, listed as Eplerenone + aldosterone + salt, mean
[11] = individual rats and group mean, 7 days of treatment, aldosterone + salt, eplerenone 100 mg/kg/day
[12] = individual rats and group mean, 7 days of treatment, aldosterone + salt, eplerenone 100 mg/kg/day, group mean

For `C[C@]12CCC(=O)C=C1CC[C@@H]1[C@@H]2[C@@H](O)C[C@]2(C=O)[C@@H](C(=O)CO)CC[C@@H]12` [Aldosterone], the “Left Ventricle Weight” value [1] was 846 mg and 784 mg and 912 mg and 720 mg and 923 mg and 854 mg and 894 mg and 859 mg and 750 mg and 818 mg and 746 mg and 700 mg, the “Left Ventricle Weight/ Tibia Length” value [1] was 223 mg/cm and 206 mg/cm and 234 mg/cm and 189 mg/cm and 237 mg/cm and 225 mg/cm and 229 mg/cm and 220 mg/cm and 197 mg/cm and 215 mg/cm and 202 mg/cm and 194 mg/cm and the “Right Ventricle Weight” value [1] was 194 mg and 189 mg and 208 mg and 174 mg and 217 mg and 186 mg and 216 mg and 171 mg and 153 mg and 195 mg and 172 mg. The “Right Ventricle Weight/ Tibia Length” value [1] was 51 mg/cm and 50 mg/cm and 53 mg/cm (3×) and 56 mg/cm and 49 mg/cm and 55 mg/cm and 44 mg/cm and 40 mg/cm and 48 mg/cm, the “Left Ventricle Weight” value [2] was 817 mg and the “Left Ventricle Weight/ Tibia Length” value [2] was 214 mg/cm. The “Right Ventricle Weight” value [2] was 189 mg, the “Right Ventricle Weight/ Tibia Length” value [2] was 50 mg/cm and the “Left Ventricle Weight” value [3] was 934 mg and 726 mg and 963 mg and 942 mg and 1030 mg and 837 mg and 962 mg and 873 mg and 919 mg. For the same molecule, the “Left Ventricle Weight/ Tibia Length” value [3] was 234 mg/cm and 191 mg/cm and 247 mg/cm (2×) and 242 mg/cm (2×) and 264 mg/cm and 215 mg/cm and 218 mg/cm, the “Right Ventricle Weight” value [3] was 196 mg and 148 mg and 215 mg and 176 mg and 224 mg and 173 mg and 220 mg and 187 mg and 185 mg and the “Right Ventricle Weight/ Tibia Length” value [3] was 49 mg/cm (2×) and 39 mg/cm and 55 mg/cm and 45 mg/cm and 57 mg/cm and 44 mg/cm and 56 mg/cm and 47 mg/cm. The “Left Ventricle Weight” value [4] was 910 mg, the “Left Ventricle Weight/ Tibia Length” value [4] was 233 mg/cm and the “Right Ventricle Weight” value [4] was 192 mg. The “Right Ventricle Weight/ Tibia Length” value [4] was 49 mg/cm, the Body weight was “significantly lower” and the “Ventricular hypertrophy (absolute ventricular weights, ventricular weight to tibia length ratios)” value [5] was “Significant left and right ventricular hypertrophy”. The “Final Body Weight” value [6] was 277 ± 5 g, the “Left Ventricle Weight” value [6] was 736 ± 25 mg and the Left Ventricle Weight/ Tibia Length [6] was 194 ± 6 mg/cm. For the same molecule, the “Right Ventricle Weight” value [6] was 183 ± 7 mg, the Right Ventricle Weight/ Tibia Length [6] was 48 ± 2 mg/cm and the “Final Body Weight” value [7] was 270 ± 11 g. For the same molecule, the “Left Ventricle Weight” value [7] was 817 ± 22 mg, the Left Ventricle Weight/ Tibia Length [7] was 214 ± 5 mg/cm and the “Right Ventricle Weight” value [7] was 189 ± 5 mg. The Right Ventricle Weight/ Tibia Length [7] was 50 ± 1 mg/cm, the “Final Body Weight” value [8] was 272 ± 10 g and the “Left Ventricle Weight” value [8] was 910 ± 29 mg. The Left Ventricle Weight/ Tibia Length [8] was 233 ± 7 mg/cm, the “Right Ventricle Weight” value [8] was 192 ± 8 mg and the Right Ventricle Weight/ Tibia Length [8] was 49 ± 2 mg/cm.
In the case of `COC(=O)[C@@H]1CC2=CC(=O)CC[C@]2(C)[C@@]23O[C@@H]2C[C@@]2(C)[C@@H](CC[C@@]24CCC(=O)O4)[C@H]13` [Eplerenone], the “Left Ventricle Weight” value [9] is reported as 804 mg and 898 mg and 789 mg and 851 mg and 668 mg and 833 mg and 886 mg and 756 mg and 751 mg and 795 mg and 915 mg, the “Left Ventricle Weight/ Tibia Length” value [9] is reported as 212 mg/cm and 236 mg/cm and 221 mg/cm and 176 mg/cm and 225 mg/cm and 233 mg/cm and 199 mg/cm and 198 mg/cm and 215 mg/cm and 235 mg/cm and the “Right Ventricle Weight” value [9] is reported as 182 mg and 188 mg (2×) and 176 mg and 189 mg and 139 mg and 371 mg and 193 mg and 158 mg and 155 mg and 225 mg. For the same molecule, the “Right Ventricle Weight/ Tibia Length” value [9] was 48 mg/cm and 49 mg/cm (3×) and 46 mg/cm and 37 mg/cm and 100 mg/cm and 51 mg/cm and 42 mg/cm (2×) and 58 mg/cm, the “Left Ventricle Weight” value [10] was 813 mg and the “Left Ventricle Weight/ Tibia Length” value [10] was 214 mg/cm. The “Right Ventricle Weight” value [10] was 197 mg, the “Right Ventricle Weight/ Tibia Length” value [10] was 52 mg/cm and the Body weight was “significantly attenuated”. The “Ventricular hypertrophy (absolute ventricular weights, ventricular weight to tibia length ratios)” value [5] was “did not impact”, the “Left Ventricle Weight” value [11] was 859 mg and 712 mg and 618 mg and 658 mg and 754 mg and 733 mg and 726 mg and 696 mg and 700 mg and 688 mg and the “Left Ventricle Weight/ Tibia Length” value [11] was 220 mg/cm and 187 mg/cm and 167 mg/cm and 173 mg/cm and 198 mg/cm and 193 mg/cm and 191 mg/cm and 183 mg/cm and 184 mg/cm and 181 mg/cm. The “Right Ventricle Weight” value [11] was 216 mg and 181 mg (2×) and 154 mg and 174 mg and 192 mg and 171 mg and 190 mg and 170 mg and 187 mg, the “Right Ventricle Weight/ Tibia Length” value [11] was 55 mg/cm and 48 mg/cm (2×) and 42 mg/cm and 46 mg/cm and 51 mg/cm and 45 mg/cm (2×) and 50 mg/cm and 49 mg/cm and the “Left Ventricle Weight” value [12] was 714 mg. For the same molecule, the “Left Ventricle Weight/ Tibia Length” value [12] was 188 mg/cm, the “Right Ventricle Weight” value [12] was 182 mg and the “Right Ventricle Weight/ Tibia Length” value [12] was 48 mg/cm. For the same molecule, the “Final Body Weight” value [6] was 287 ± 4 g, the “Left Ventricle Weight” value [6] was 714 ± 20 mg and the Left Ventricle Weight/ Tibia Length [6] was 188 ± 5 mg/cm. The “Right Ventricle Weight” value [6] was 182 ± 5 mg, the Right Ventricle Weight/ Tibia Length [6] was 48 ± 1 mg/cm and the “Final Body Weight” value [7] was 283 ± 6 g. The “Left Ventricle Weight” value [7] was 813 ± 22 mg, the Left Ventricle Weight/ Tibia Length [7] was 214 ± 6 mg/cm and the “Right Ventricle Weight” value [7] was 197 ± 19 mg. The Right Ventricle Weight/ Tibia Length [7] was 52 ± 5 mg/cm, the “Final Body Weight (g)” value [8] was 331 ± 7^# g and the “Left Ventricle Weight” value [8] was 936 ± 34 mg. The Left Ventricle Weight/ Tibia Length [8] was 240 ± 9 mg/cm, the “Right Ventricle Weight” value [8] was 198 ± 6 mg and the Right Ventricle Weight/ Tibia Length [8] was 51 ± 2 mg/cm.
